Data: PubChem BioAssay (NCI)
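Growth conditions: 96-well plates. Treatment: test compound, 48 hours, 5 concentrations. Analysis: linear interpolation between bracketing concentrations; unreached endpoints set to highest concentration. GI50 marks 50% less growth. TGI denotes the concentration required for complete inhibition of growth.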

Tests used:
Test in all cases: inhibition of tumour cell growth, NCI panel, 48 h
KM12 colon = tested on: KM12 colon
MCF7 breast = tested on: MCF7 breast
ACHN renal = tested on: ACHN renal
COLO 205 colon = tested on: COLO 205 colon
HOP-62 NSCLC = tested on: HOP-62 NSCLC
NCI-H226 lung = tested on: NCI-H226 lung
RPMI-8226 leukemia = tested on: RPMI-8226 leukemia
PC-3 prostate = tested on: PC-3 prostate
NCI/ADR-RES ovarian = tested on: NCI/ADR-RES ovarian
LOX IMVI melanoma = tested on: LOX IMVI melanoma
K-562 leukemia = tested on: K-562 leukemia
HT29 colon = tested on: HT29 colon
CCRF-CEM leukemia = tested on: CCRF-CEM leukemia
SW-620 colon = tested on: SW-620 colon
HCC-2998 colon = tested on: HCC-2998 colon
A549 NSCLC = tested on: A549 NSCLC
NCI-H460 lung = tested on: NCI-H460 lung
HCT-15 colon = tested on: HCT-15 colon
HCT-116 colon = tested on: HCT-116 colon
DU-145 prostate = tested on: DU-145 prostate
786-0 renal = tested on: 786-0 renal
CAKI-1 renal = tested on: CAKI-1 renal
SF-539 CNS = tested on: SF-539 CNS
MALME-3M melanoma = tested on: MALME-3M melanoma
OVCAR-8 ovarian = tested on: OVCAR-8 ovarian
EKVX NSCLC = tested on: EKVX NSCLC
SNB-75 CNS = tested on: SNB-75 CNS
IGROV1 ovarian = tested on: IGROV1 ovarian
M14 melanoma = tested on: M14 melanoma
SNB-19 CNS = tested on: SNB-19 CNS
SK-OV-3 ovarian = tested on: SK-OV-3 ovarian
SK-MEL-28 melanoma = tested on: SK-MEL-28 melanoma
RXF 393 renal = tested on: RXF 393 renal
OVCAR-5 ovarian = tested on: OVCAR-5 ovarian
OVCAR-4 ovarian = tested on: OVCAR-4 ovarian
HOP-92 NSCLC = tested on: HOP-92 NSCLC
NCI-H23 lung = tested on: NCI-H23 lung
SK-MEL-5 melanoma = tested on: SK-MEL-5 melanoma
A498 renal = tested on: A498 renal
BT-549 breast = tested on: BT-549 breast
UACC-62 melanoma = tested on: UACC-62 melanoma
SF-295 CNS = tested on: SF-295 CNS
SK-MEL-2 melanoma = tested on: SK-MEL-2 melanoma
UACC-257 melanoma = tested on: UACC-257 melanoma
T-47D breast = tested on: T-47D breast
MDA-MB-435 = tested on: MDA-MB-435
U251 CNS = tested on: U251 CNS
NCI-H522 lung = tested on: NCI-H522 lung
OVCAR-3 ovarian = tested on: OVCAR-3 ovarian
MDA-MB-231 breast = tested on: MDA-MB-231 breast
TK-10 renal = tested on: TK-10 renal
SN12C renal = tested on: SN12C renal
UO-31 renal = tested on: UO-31 renal

Question: With Cc1cc(Nc2ccc(F)cc2)nc(N2CCN(c3ccnc4cc(Cl)ccc34)CC2)n1 as the molecule, how does the GI50 (KM12 colon) read?
Answer: Its GI50 is 2.78 µM.

Question: What about the TGI (KM12 colon) of the same molecule?
Answer: Its TGI is 75 µM.

Question: What about the GI50 (MCF7 breast) of the same molecule?
Answer: The GI50 was 2.69 µM.

Question: And the TGI (MCF7 breast)?
Answer: Its TGI is > 100 µM.

Question: And the GI50 (ACHN renal)?
Answer: Its GI50 is 2.84 µM.

Question: And the TGI (ACHN renal)?
Answer: Its TGI is > 100 µM.

Question: What about the GI50 (COLO 205 colon) of the same molecule?
Answer: The GI50 was 1.8 µM.

Question: And the TGI (COLO 205 colon)?
Answer: Its TGI is 4.39 µM.

Question: And the GI50 (HOP-62 NSCLC)?
Answer: Its GI50 is 4.06 µM.

Question: And the TGI (HOP-62 NSCLC)?
Answer: Its TGI is > 100 µM.

Question: What about the GI50 (NCI-H226 lung) of the same molecule?
Answer: The GI50 was 4.75 µM.

Question: What about the TGI (NCI-H226 lung) of the same molecule?
Answer: Its TGI is > 100 µM.

Question: And the GI50 (RPMI-8226 leukemia)?
Answer: The GI50 was 2.25 µM.

Question: And the TGI (RPMI-8226 leukemia)?
Answer: Its TGI is > 100 µM.

Question: And the GI50 (PC-3 prostate)?
Answer: Its GI50 is 1.79 µM.

Question: What about the TGI (PC-3 prostate) of the same molecule?
Answer: Its TGI is > 100 µM.

Question: What about the GI50 (NCI/ADR-RES ovarian) of the same molecule?
Answer: The GI50 was 2.88 µM.

Question: What about the TGI (NCI/ADR-RES ovarian) of the same molecule?
Answer: Its TGI is > 100 µM.

Question: And the GI50 (LOX IMVI melanoma)?
Answer: The GI50 was 2.94 µM.

Question: What about the TGI (LOX IMVI melanoma) of the same molecule?
Answer: Its TGI is > 100 µM.

Question: What about the GI50 (K-562 leukemia) of the same molecule?
Answer: The GI50 was 2.49 µM.

Question: And the TGI (K-562 leukemia)?
Answer: The TGI was > 100 µM.

Question: And the GI50 (HT29 colon)?
Answer: Its GI50 is 2.96 µM.

Question: And the TGI (HT29 colon)?
Answer: Its TGI is > 100 µM.

Question: And the GI50 (CCRF-CEM leukemia)?
Answer: Its GI50 is 2.99 µM.

Question: What about the TGI (CCRF-CEM leukemia) of the same molecule?
Answer: The TGI was > 100 µM.

Question: And the GI50 (SW-620 colon)?
Answer: The GI50 was 3.44 µM.

Question: What about the TGI (SW-620 colon) of the same molecule?
Answer: Its TGI is > 100 µM.

Question: And the GI50 (HCC-2998 colon)?
Answer: The GI50 was 4.05 µM.

Question: What about the TGI (HCC-2998 colon) of the same molecule?
Answer: Its TGI is > 100 µM.

Question: And the GI50 (A549 NSCLC)?
Answer: The GI50 was 3.75 µM.

Question: What about the TGI (A549 NSCLC) of the same molecule?
Answer: Its TGI is > 100 µM.

Question: What about the GI50 (NCI-H460 lung) of the same molecule?
Answer: Its GI50 is 2.95 µM.

Question: What about the TGI (NCI-H460 lung) of the same molecule?
Answer: The TGI was > 100 µM.

Question: And the GI50 (HCT-15 colon)?
Answer: Its GI50 is 2.27 µM.

Question: And the TGI (HCT-15 colon)?
Answer: Its TGI is > 100 µM.

Question: And the GI50 (HCT-116 colon)?
Answer: Its GI50 is 2.15 µM.

Question: And the TGI (HCT-116 colon)?
Answer: The TGI was > 100 µM.

Question: CC(C)(C)NCCC(O)c1cc2c(Cl)cc(Cl)cc2c2cc(C(F)(F)F)ccc12 (configuration not stated) was tested. Which GI50 (DU-145 prostate) did it give?
Answer: Its GI50 is 1.97 µM.

Question: And the TGI (DU-145 prostate)?
Answer: Its TGI is 3.5 µM.

Question: Which results are given for Cc1cc(C)c2c(=N)c3ccccc3n(CCCCCCn3c4ccccc4c(=N)c4c(C)cc(C)nc43)c2n1?
Answer: TGI (786-0 renal): 0.816 µM; TGI (KM12 colon): 0.973 µM; TGI (CAKI-1 renal): 2.52 µM; TGI (SF-539 CNS): 3.01 µM; TGI (MALME-3M melanoma): 2.68 µM; TGI (OVCAR-8 ovarian): 3.14 µM; TGI (EKVX NSCLC): 3.29 µM; TGI (SNB-75 CNS): 1.43 µM; TGI (IGROV1 ovarian): 2.64 µM; TGI (M14 melanoma): 3.07 µM; TGI (SNB-19 CNS): 2.11 µM; TGI (SK-OV-3 ovarian): 2.98 µM; TGI (SK-MEL-28 melanoma): 2.64 µM; TGI (RXF 393 renal): 2.54 µM; TGI (ACHN renal): 2.91 µM; TGI (OVCAR-5 ovarian): 3.49 µM; TGI (DU-145 prostate): 3.13 µM; TGI (OVCAR-4 ovarian): 3.01 µM; TGI (HOP-92 NSCLC): 2.94 µM; TGI (NCI-H23 lung): 2.44 µM; TGI (HOP-62 NSCLC): 1.44 µM; TGI (SK-MEL-5 melanoma): 3.39 µM; TGI (NCI-H226 lung): 2.85 µM; TGI (A498 renal): 3.12 µM; TGI (BT-549 breast): 2.91 µM; TGI (UACC-62 melanoma): 3.26 µM; TGI (SF-295 CNS): 2.85 µM; TGI (SK-MEL-2 melanoma): 2.97 µM; TGI (UACC-257 melanoma): 3.06 µM; TGI (T-47D breast): 3.65 µM; TGI (PC-3 prostate): 2.81 µM; TGI (MDA-MB-435): 3.3 µM; TGI (K-562 leukemia): > 100 µM; TGI (HT29 colon): 1.68 µM; TGI (U251 CNS): 0.387 µM; TGI (CCRF-CEM leukemia): 0.565 µM; TGI (SW-620 colon): 0.34 µM; TGI (HCC-2998 colon): 0.323 µM; TGI (NCI-H522 lung): 2.31 µM; TGI (A549 NSCLC): 3.03 µM; TGI (OVCAR-3 ovarian): 3.09 µM; TGI (MDA-MB-231 breast): 1.09 µM; TGI (TK-10 renal): 3.19 µM; TGI (SN12C renal): 2.88 µM; TGI (HCT-15 colon): 0.343 µM; TGI (HCT-116 colon): 0.353 µM; TGI (UO-31 renal): 2.91 µM
